The nature of data set [1]: Storage stability at 4 °C of plasma samples prepared for mass spectrum analysis. The format is physicochemical. The settings on record: mass spectrum samples from male rat plasma. Here is the method: Plasma samples collected from either in vivo (see the In Vivo “Pharmacokinetic” Analysis of αCT11 section) or ex vivo (see the Ex Vivo Degradation Analysis of αCT11 in Rat Plasma section) groups were processed in the same way outlined here, according to the modified protocol from a previous publication.[36] Briefly, 100 μL of plasma was added to a 0.5 mL low-adhesion microcentrifuge tube containing 4% FA in 200 μL of ACN [see Table S1]. The tubes were slightly (∼1 min) vortexed and centrifuged for 5 min at 11,332g using an Eppendorf Centrifuge 5424R (Eppendorf North America, Framingham, MA) to recover the supernatants. 100 μL of the supernatant was then combined with 100 μL of deionized H2O in 2 mL amber autovials with a low-volume insert and capped. The samples were either stored at 4 °C up to 4 weeks (see the Results section) or analyzed immediately using a Waters H-Class UPLC mass spectrometer (Milford, MA) and its accompanying MassLynx software, version 4.2 (Milford, MA). […]
Following the initial measurements at Week 0 (i.e., Day 0 when fresh plasma was isolated and αCT11 concentrations were measured at 0 min at 22 °C and 37 °C), the same samples used in each conduction were stored at 4 °C for 1 week (A), 4 weeks (B), or 6 weeks (C) before being used again to measure the peptide concentrations. […]

A short description of data set [2]: In vivo "pharmacokinetic" analysis of αCT11 in plasma after tail vein injection. The settings on record: tail vein injection to 100 μM in blood, LC-MS/MS, n = 3. Set-up: species or system rat. On the procedure:
A second group of rats (only male) was not subjected to MI but injected (via the tail vein) with the same concentration of αCT11 as described in the Rat Model of I/R MI and Tail Vein Injection of αCT11 section. After injection, about 250–350 μL of blood was withdrawn at 1, 5, and 10 min following administration and transferred into an anticlotting tube containing heparin. Plasma was then separated at 4 °C and 2000g for 10 min using an Eppendorf Centrifuge 5810R (Eppendorf North America, Framingham, MA) and stored at −80 °C or used immediately for liquid chromatography tandem mass spectrometry (LC/MS-MS; described in the Prepreparation and Measurements of Plasma Containing αCT11 for LC/MS-MS Analysis section).
Plasma samples collected from either in vivo (see the In Vivo “Pharmacokinetic” Analysis of αCT11 section) or ex vivo (see the Ex Vivo Degradation Analysis of αCT11 in Rat Plasma section) groups were processed in the same way outlined here, according to the modified protocol from a previous publication.[36] Briefly, 100 μL of plasma was added to a 0.5 mL low-adhesion microcentrifuge tube containing 4% FA in 200 μL of ACN [see Table S1]. […] The samples were either stored at 4 °C up to 4 weeks (see the Results section) or analyzed immediately using a Waters H-Class UPLC mass spectrometer (Milford, MA) and its accompanying MassLynx software, version 4.2 (Milford, MA). […]

A short description of data set [3]: Ex vivo degradation of αCT11 in isolated rat plasma. The format is in vitro ADME. The settings on record: for remaining at 5 min, 100 μM: 100 μM αCT11, 5 min. The source says: A third group of rats (including both males and females) was not subjected to either MI or the tail vein injection of αCT11. Instead, after injection of heparin (300 U/mL blood, the total units of heparin were estimated from body weight of each rat), as much blood as possible was collected under deep anesthesia via a cardiac puncture with a 21G needle connected to a syringe containing heparin. Blood was then transferred into an anticlotting tube on ice, followed by plasma separation as described above. All plasma collected from either males or females were randomly sorted into 4 groups (G) per gender [G1: 22 °C; G2: 37 °C, G3: 22 °C + inhibitor cocktail and G4: 37 °C + inhibitor cocktail] and incubated at 22 °C [in an Eppendorf thermomixer (Eppendorf North America, Framingham, MA)] or at 37 °C [in a digital dry bath (Benchmark, Sayreville, NJ)] with or without additions of αCT11 (at a final concentration of 100 μM in each tube) in the presence or absence of a PTase/PPTase inhibitor cocktail (at a final concentration of 1.5× of the original concentration). It took less than ∼30 s for the 22 °C groups to reach 22 °C and ∼75 s for the 37 °C groups to reach 37 °C. […], 100 μL of plasma was taken in triplicate from the tube of each animal at 0, 5, 30, and 60 min following additions of αCT11 and the cocktail inhibitors (if applied). The collected samples were then transferred to new tubes for further preparation prior to LC/MS-MS analysis.
Plasma samples collected from either in vivo (see the In Vivo “Pharmacokinetic” Analysis of αCT11 section) or ex vivo (see the Ex Vivo Degradation Analysis of αCT11 in Rat Plasma section) groups were processed in the same way outlined here, according to the modified protocol from a previous publication.[36] Briefly, 100 μL of plasma was added to a 0.5 mL low-adhesion microcentrifuge tube containing 4% FA in 200 μL of ACN [see Table S1]. The tubes were slightly (∼1 min) vortexed and centrifuged for 5 min at 11,332g using an Eppendorf Centrifuge 5424R (Eppendorf North America, Framingham, MA) to recover the supernatants. 100 μL of the supernatant was then combined with 100 μL of deionized H2O in 2 mL amber autovials with a low-volume insert and capped. The samples were either stored at 4 °C up to 4 weeks (see the Results section) or analyzed immediately using a Waters H-Class UPLC mass spectrometer (Milford, MA) and its accompanying MassLynx software, version 4.2 (Milford, MA).
For measurement, the sample extracts were first separated chromatographically with an HSS T3 column and matching VanGurd column at 40 °C. A 4 μL sample was injected onto the column using a refrigerated autosampler at 5 °C. Mobile phase A was comprised of 1% FA in H2O and mobile phase B was comprised of 1% FA in ACN (Table S1). The mobile phase was delivered to the column at a flow rate of 0.4 mL/min. Tuning was performed on each analyte by direct infusion of a standard solution (0.1 ng/μL) at a rate of 10 μL/min. The parent and production transitions for αCT11 peptide are shown in Table S2, while the mass spectrometry parameters used for detecting αCT11 are listed in Table S3.
Data were collected at 0 min in triplicate from each group using LC/MS-MS and were first calibrated as 100%; all other data from the same group were then normalized as % change over the data at 0 min. A Student’s t-test was used for comparison of 2 groups, while 1- or 2-way ANOVA followed by Tukey’s test was used for comparisons of ≥3 groups with 1 or 2 factors. All data were expressed as mean ± standard error (SE), if not otherwise specified, with p < 0.05 considered statistically significant. Data were analyzed and plotted using GraphPad Prism 9.3.1 (San Diego, CA) and Microsoft 2019 MS Excel (Redmond, WA).

The text below walks through data of publication PMC11091968, “Degradation of the α-Carboxyl Terminus 11 Peptide: In Vivo and Ex Vivo Impacts of Time, Temperature, Inhibitors, and Gender in Rat” (ACS Pharmacology & Translational Science, 2024).

Where two headings read alike, the source gives them in different places. Residues, ends and D or L forms follow the SMILES beside them. *: point of attachment. Biotin = O=C1N[C@H]2[C@H](CS[C@H]2CCCCC(=O)*)N1; Ahx = NCCCCCC(=O)O

Turning to `CC[C@H](C)[C@H](NC(=O)[C@H](CCC(=O)O)NC(=O)[C@H](CC(C)C)NC(=O)[C@H](CC(=O)O)NC(=O)[C@H](CC(=O)O)NC(=O)[C@@H]1CCCN1C(=O)[C@H](CCCNC(=N)N)NC(=O)[C@@H]1CCCN1C(=O)[C@H](CCCNC(=N)N)NC(=O)CCCCCNC(=O)CCCC[C@@H]1SC[C@@H]2NC(=O)N[C@@H]21)C(=O)O` [αCT11] ({Biotin-Ahx}-RPRPDDLEI-OH), in data set [1], the “storage time at 4 °C without significant degradation of αCT11” value is listed as “up to 4 weeks”. Also, the “reduction of the initial αCT11 concentration in plasma” value in data set [2] (male rats without MI, about 5 min postinjection) is approximately 53%. In addition, in data set [2] (male rats, 10 min postinjection), the “αCT11 in blood plasma 10 min after tail vein injection” value was “almost undetectable”. Further, the remaining at 5 min, 100 μM turned out to be 80.9 ± 3.7% in data set [3] (isolated heparinised female rat plasma, 22 °C, with 1.5× PTase/PPTase inhibitor cocktail, LC-MS/MS, mean ± SE, n = 3 rats, read-out: percentage of αCT11 (normalized to 0 min)); 51.4 ± 3.5% in data set [3] (isolated heparinised female rat plasma, 37 °C, no inhibitors, LC-MS/MS, mean ± SE, n = 3 rats (9 replicates), read-out: αCT11 level, % of starting concentration (0 min)); 61.9 ± 5.7% in data set [3] (isolated heparinised male rat plasma, 37 °C, no inhibitors, LC-MS/MS, mean ± SE, n = 3 rats (9 replicates), read-out: αCT11 level, % of starting concentration (0 min)). The remaining at 1 h, 100 μM in data set [3] (isolated heparinised female rat plasma, 22 °C, with 1.5× PTase/PPTase inhibitor cocktail, 100 μM αCT11, 60 min, LC-MS/MS, mean ± SE, n = 3 rats, read-out: percentage of αCT11 (normalized to 0 min)) was 13.2 ± 3.3%; in data set [3] (isolated heparinised female rat plasma, 37 °C, no inhibitors, 100 μM αCT11, 60 min, LC-MS/MS, mean ± SE, n = 3 rats (9 replicates), read-out: αCT11 level, % of starting concentration (0 min)) it was 0.1 ± 0.03%; in data set [3] (isolated heparinised male rat plasma, 22 °C, with 1.5× PTase/PPTase inhibitor cocktail, 100 μM αCT11, 60 min, LC-MS/MS, mean ± SE, n = 3 rats, read-out: percentage of αCT11 (normalized to 0 min)), 19.1 ± 2.7%; in data set [3] (isolated heparinised male rat plasma, 37 °C, no inhibitors, 100 μM αCT11, 60 min, LC-MS/MS, mean ± SE, n = 3 rats (9 replicates), read-out: αCT11 level, % of starting concentration (0 min)), 0.04 ± 0.06%. The “αCT11 level, % of starting concentration (0 min)” value in data set [3] (isolated heparinised female rat plasma, 37 °C, no inhibitors, 100 μM αCT11, 30 min, LC-MS/MS, mean ± SE, n = 3 rats (9 replicates)) turned out to be 1.6 ± 0.6%. Also, the remaining at 0.5 h, 100 μM in data set [3] (isolated heparinised male rat plasma, 22 °C, with 1.5× PTase/PPTase inhibitor cocktail, 100 μM αCT11, 30 min, LC-MS/MS, mean ± SE, n = 3 rats, read-out: percentage of αCT11 (normalized to 0 min)) was 41.6 ± 3.3%; in data set [3] (isolated heparinised male rat plasma, 37 °C, no inhibitors, 100 μM αCT11, 30 min, LC-MS/MS, mean ± SE, n = 3 rats (9 replicates), read-out: αCT11 level, % of starting concentration (0 min)), 1.5 ± 1.2%. Further, the “αCT11 in isolated plasma by 30 min” value in data set [3] (isolated rat plasma, 22 and 37 °C, no inhibitors, 30 min, LC-MS/MS) is “nearly undetectable”. In data set [3] (isolated rat plasma, 22 or 37 °C, absence and presence of 1.5× inhibitors, any time point (0, 5, 30, 60 min), LC-MS/MS, n = 3), the “αCT11 concentrations, male vs female rat plasma” value was “no significant differences”. In addition, in data set [3] (isolated rat plasma, males and females, 22 °C, no inhibitors, 100 μM αCT11, 60 min, LC-MS/MS), the “αCT11 in ex vivo plasma at 60 min” value was “almost undetectable”. The “time for αCT11 concentration to decrease to 50% in ex vivo plasma” value in data set [3] (isolated rat plasma, males and females, 22 °C, no inhibitors, 100 μM αCT11, LC-MS/MS) is on record as “about 10 min”.
